The target of assay [1] is purified recombinant bacterial sialidase from Salmonella T. (Salmonella typhimurium, UniProt P29768). Briefly: Biochemical evaluation of chromogenic substrate with bacterial sialidase. The note with it: substrate ca. 0.7 mM, 30 minutes.
The target in assay [2] is viral sialidase from whole influenza virus A1PR/8/34 (Influenza A virus, UniProt P03468). Description: Biochemical evaluation of chromogenic substrate with viral sialidase. To be noted: substrate ca. 0.7 mM, 30 minutes. As to the method:
Biochemical evaluation for the chromogenic product of viral sialidase substrate compounds. Sialidase can be obtained from, for example, purified recombinant bacterial sialidase from Salmonella T., whole influenza virus, or culture medium containing secreted human sialidase from the 2CFSME cell line. The sialidase preparation is added to a buffer of sodium acetate (0.05 to 0.5 M; pH 5.0-6.0), and the substrate compound is provided at about 0.2-1.0 mM concentration. It should be noted that numerous other examples of buffer solution may be used, including organic acids such as citrate buffers, for example, as well as inorganic buffers, including potassium, sodium, calcium, and other such salts thereof. […] The color change is readily visible. The color change can be quantitated spectrophotometrically by measuring the light absorption of the reaction mixture. […]
E. Biochemical Evaluation of a Chromogenic Substrate Product with Bacterial Sialidase and with Viral Sialidase. […] The reaction progress was quantitated by measuring the light absorption of the reaction mixture. The light absorption was measured with a spectrophotometer at 517 nm with a 1 cm path cell. In the experiment conducted with bacterial sialidase, the absorbance was measured as 2.448. In the experiment conducted with viral sialidase, the absorbance was measured as 1.168. […]

[3] abbreviates: pH 6.0, 37° C., after addition of sodium hydroxide (pH>11.0).

Sequence of viral sialidase from whole influenza virus A1PR/8/34 (P03468 whole entry, looked up): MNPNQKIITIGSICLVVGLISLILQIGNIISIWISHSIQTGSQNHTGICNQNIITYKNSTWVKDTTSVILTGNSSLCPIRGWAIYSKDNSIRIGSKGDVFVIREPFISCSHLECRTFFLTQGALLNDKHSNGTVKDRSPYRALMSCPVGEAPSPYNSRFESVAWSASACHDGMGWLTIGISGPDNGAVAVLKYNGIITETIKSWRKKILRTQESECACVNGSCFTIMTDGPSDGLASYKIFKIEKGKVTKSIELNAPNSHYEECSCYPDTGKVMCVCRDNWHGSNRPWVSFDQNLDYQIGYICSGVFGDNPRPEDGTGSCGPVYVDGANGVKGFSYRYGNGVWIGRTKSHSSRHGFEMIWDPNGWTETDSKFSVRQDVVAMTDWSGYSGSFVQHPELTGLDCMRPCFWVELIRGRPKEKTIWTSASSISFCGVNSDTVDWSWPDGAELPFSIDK
Sequence of purified recombinant bacterial sialidase from Salmonella T. (P29768 whole entry): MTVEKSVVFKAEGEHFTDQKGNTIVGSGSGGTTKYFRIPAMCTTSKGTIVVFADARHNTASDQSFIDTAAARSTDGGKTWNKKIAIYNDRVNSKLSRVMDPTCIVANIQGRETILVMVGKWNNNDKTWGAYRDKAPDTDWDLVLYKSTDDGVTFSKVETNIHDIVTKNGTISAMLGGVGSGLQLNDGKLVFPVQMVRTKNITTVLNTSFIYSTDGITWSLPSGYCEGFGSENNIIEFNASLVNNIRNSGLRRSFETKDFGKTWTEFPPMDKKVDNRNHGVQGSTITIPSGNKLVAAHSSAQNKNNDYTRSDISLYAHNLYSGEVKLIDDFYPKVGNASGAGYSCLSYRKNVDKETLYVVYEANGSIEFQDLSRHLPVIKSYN

Regarding `COC(=O)C1(Oc2cc(C)c(C3(c4cc(C(C)C)c(O)cc4C)OC(=O)c4ccccc43)cc2C(C)C)CC(OC)C(NC(C)=O)C([C@H](N)[C@H](O)CO)O1` (stereo partly shown) [Compound 9c], the “absorbance (light absorption of the reaction mixture)” value was 2.448 in assay [1] (517 nm, 1 cm path cell, potassium acetate 0.5 M pH 6.0, 37° C., then sodium hydroxide 1.0 M) and 1.168 in assay [2] (517 nm, 1 cm path cell, potassium acetate 0.5 M pH 6.0, 37° C., then sodium hydroxide 1.0 M, reaction not allowed to proceed to completion). For the same compound, the visible color change entry in assay [1] (setting [3]) and in assay [2] (setting [3]) was “color change to blue was readily visible” each time.

The values above are taken from patent publication US6667161B1, “Chromogenic substrates of sialidase of bacterial, viral, protozoa, and vertebrate origin and methods of making and using the same” (Ibbex, Inc., priority 1997, dated 2003).
